Where a SMILES comes first, the peptide text is derived from it. Bridges are numbered along the chain shown (N, C = ends). [ ]: non-standard residue; d: D form. The star is where a group is joined. Ileψ(thiazoline)Cys = CC[C@H](C)[C@H](N)C1=N[C@H](C(=O)*)CS1; dOrn = NCCC[C@@H](N)C(=O)O
Tests used:
Test in all cases: ELISA of cytokine production in LPS-stimulated RAW 264.7 cells
Format in all cases: cell-based, mouse
Settings in all cases: 10–100 μg/mL before LPS 1 μg/mL for 24 h; ELISA of supernatant
IL-1β = test system: IL-1β
Protocol: (§1) The concentration of nitrite in the supernatant was calculated using a sodium nitrite standard curve. The supernatant was analyzed for TNF-α, IL-1β, and IL-6 by ELISAs using commercial kits (BD Biosciences) according to the manufacturer’s instructions.

IL-6 = test system: IL-6
Protocol: as §1

TNF-α = test system: TNF-α
Protocol: as §1

CC[C@H](C)[C@H](N)C1=N[C@H](C(=O)N[C@@H](CC(C)C)C(=O)N[C@H](CCC(=O)O)C(=O)N[C@H](C(=O)N[C@H]2CCCCNC(=O)[C@H](CC(N)=O)NC(=O)[C@@H](CC(=O)O)NC(=O)[C@H](Cc3c[nH]cn3)NC(=O)[C@@H](Cc3ccccc3)NC(=O)[C@H]([C@@H](C)CC)NC(=O)[C@@H](CCCN)NC2=O)[C@@H](C)CC)CS1 [CSP32] ({Ileψ(thiazoline)Cys}-L[dE]IK[dOrn]I[dF]H[dD]N; lactam 4-C; N-terminus assumed)
significantly attenuated: Effect on LPS-induced IL-1β release (IL-1β) | Effect on LPS-induced IL-6 release (IL-6) | Effect on LPS-induced TNF-α release (TNF-α)
